# Test results taken from a melting point compilation (Tetko et al.; mined from patent text by program, amines drawn as free bases though some values may be those of a salt).
row,melting point,Compound
1,145 to 146 °C,O=C1NC(SCC#CCc2ccccc2)C1NC(c1ccccc1)(c1ccccc1)c1ccccc1 (configuration not stated)
2,92 to 93 °C,CCCCCCCCCCCCCCCCC(N)C(O)CO (configuration not stated)
3,92 °C,CC(C)=CCO[C@H]1NC(=O)[C@@H]1NC(=O)c1ccccc1
4,> 210 °C,COc1cc(Br)nc2[nH]cc(C(C)=O)c12
5,133 to 139 °C,CC(Oc1ccc2nc(NC(=O)NCCN3CCC(Cc4ccccc4)CC3)sc2c1)c1c(Cl)ccc(F)c1Cl (configuration not stated)
6,139 to 143 °C,NN=C1c2ccccc2-c2ccc(Cl)cc21
7,88 to 93 °C,CCNC(=O)[C@H]1N(C(=O)[C@@H](OC(C)=O)[C@H](Cc2ccccc2)NC(=O)c2cc(C)cc(OC(C)=O)c2C)CC(F)(F)C1(C)C
8,62 to 65 °C,Cc1nc(N2C[C@H](C)N(Cc3ccc(F)cc3)C2=O)sc1C(=O)NCc1ccc(F)c(F)c1
9,180 to 182 °C,C=CCc1cc(N2CCN(c3ccncc3)CC2)ccc1O
10,168 to 169 °C,Cc1ccc(C)c(-c2cc(C#N)c(NC(=O)[C@@H]3C[C@@H]4CC[C@H]3C4)s2)c1
11,138 to 140 °C,O=C(NCC1(O)CCCCCC1)c1c(Cl)ccc2nc(N3CC[C@H](NCCO)C3)ccc12
12,154 to 156 °C,CC1(C)CC2(CC(C)(C)N1c1nc(Cl)nc(N3CCOCC3)n1)OCCO2
13,200 °C,O=C(O)c1ccc(O)c(Cl)c1Cl
14,91 to 92 °C,Cc1c([N+](=O)[O-])cnn1-c1c(Cl)cc(C(F)(F)F)cc1Cl
15,106 to 108 °C,O=C1OC(=O)c2cc(N=C=S)ccc21
16,> 300 °C,COc1ccc2c(c1)sc1[nH]c(=O)c(=O)[nH]c12
17,118 to 120 °C,Cc1cccc(-c2ccc(S(=O)(=O)N3c4ccccc4CC3C(=O)NCc3ccc(CC(=O)O)cc3)cc2)c1 (configuration not stated)
18,145 to 148 °C,COCc1nc2cnc3ccccc3c2n1CC(C)(C)O
19,178 to 179 °C,CC1(O)c2ccccc2C(C)(O)c2ccccc21 (configuration not stated)
20,169 to 173 °C,COc1cc(N2CCOCC2)ccc1Nc1ncc2cc3ccccc3n2n1
21,53 to 56 °C,CC(C)(NC(=O)C(CS)Cc1ccccc1)C(=O)OCc1ccccc1 (configuration not stated)
22,71 °C,CCC(C(=O)c1ccc(OCc2ccccc2)cc1)c1ccccc1 (configuration not stated)
23,156 °C,OC1CC(c2ccc(Oc3ccc(-c4ccc(Cl)cc4)cc3)cc2)Cc2ccccc21 (configuration not stated)
24,157 to 158 °C,CCOC(=O)c1c(CN(CC)CC)nc2cc(OC)c(OC)cc2c1-c1ccc(Cl)c(Cl)c1

row,melting point,Compound
1,169 to 171 °C,COc1ccc2c(n1)C1(CO2)C(=O)N(Cc2ncc(Cl)n2C)c2ccccc21 (configuration not stated)
2,232 to 234 °C,CC1(C)CC(CCn2c(=O)[nH]c3ncc(-c4ccc(O)cc4)nc32)CCO1 (configuration not stated)
3,144 to 145 °C,CC(=O)N1CC(=O)N2CCc3ccccc3C2C1 (configuration not stated)
4,79 to 82 °C,CCCCOC(C(=O)O)c1ccc2c(c1)C(C)(C)CCC2(C)C (racemic)
5,98 °C,CCCCCCCCCCCCCCCC(=O)n1cc(F)c(=O)[nH]c1=O
6,94 to 95 °C,Fc1ccc(CSc2nnc(-c3ccc4c(c3)CCO4)o2)cc1C(F)(F)F
7,50 to 51 °C,O=C(CCCOc1ccccc1OCc1ccccc1)C(F)(F)F
8,159 to 161 °C,CC12CCC(=O)C=C1CCC1C2CCC2(C)C(C(=O)C3CCCCC3)CCC12 (configuration not stated)
9,187 to 190 °C,Cc1c(N2CCC(N)C2)c(F)cc2c(=O)c(C(=O)O)cn(C3CC3)c12 (configuration not stated)
10,177 to 178 °C,CCOC1CC(c2ccccc2)Oc2c1ccc1c2nc(C)n1C (configuration not stated)
11,180 to 181 °C,CCc1nc2c(C)cc(C)nc2n1Cc1ccc2c(c1)c1ccccc1n2CCC#N
12,173 to 174 °C,CCOC(=O)c1ccc(-c2cnc3c(c2)N(Cc2cc(F)ccc2F)CCN3)cc1
13,148 to 151 °C,Cc1c(C(F)(F)F)nn(C)c1O
14,148 °C,CS(=O)(=O)N1CCN([C@@H](CNS(=O)(=O)c2ccc(OCc3cccc4ccccc34)cc2)C(=O)NO)CC1
15,158 to 159 °C,Cc1cc(C)nc(NC(=O)NS(=O)(=O)c2cccn2CCC#N)n1
16,105 °C,CCCSc1c2c(=O)n(C)c(=O)n(CC(C)C)c2nn1Cc1cccc2ccccc12
17,48 to 64 °C,COCCCNc1nc(N)c(SC)c(F)n1
18,264 to 268 °C,Cc1cc(C)c2c(n1)Nc1cc(C)c(C)cc1NC2=O
19,136 °C,CCCc1ccc(S(=O)(=O)Nc2ccc3nc(C)cnc3c2)cc1
20,75 to 77 °C,COc1cc(NC(C)CCCN2C(=O)c3ccccc3C2=O)c2ncccc2c1Oc1ccc(Cl)cc1 (configuration not stated)
21,86 to 88 °C,CCC(=O)C1=C(O)CC(c2c(C)cc(C)cc2C)CC1=O (configuration not stated)
22,77 to 83 °C,COc1cc(OC)nc(Oc2ccc3ccccc3c2C(=O)OCC=NOCC=CCl)n1
23,40.5 to 41 °C,COC(=O)C(C)(C)C(O)CCOc1cc(C)ccc1C (configuration not stated)
24,118 °C,NC(=O)Oc1cccc2ccccc12

row,melting point,Compound
1,168 to 170 °C,CC(C)(CO)Cc1ccc(-c2ccc(CC(C)(C)CO)cc2)cc1
2,150 to 165 °C,OC(CNCCNc1ccc2[nH]ncc2c1)COc1ccccc1 (configuration not stated)
3,99 to 100 °C,CCOC(=O)C(=O)/C=C/c1ccc(OCCc2nc(-c3ccccc3)oc2C)cc1
4,188 to 190 °C,CCOCc1nc2c(N)nc3cc(-c4cncc(CO)c4)ccc3c2n1CC(C)(C)O
5,208 to 210 °C,COC(=O)C[C@H](O)C[C@H](O)C=Cc1c(-c2ccc(F)cc2)c(-c2ccc(F)cc2)c(C(=O)Nc2ccc(S(N)(=O)=O)cc2)n1C(C)C
6,< 50 °C,CCCCCSCCSCCSCCCCC
7,124 to 126 °C,Oc1cccc([C@H]2CCCC[C@H]2N2CCCC2)c1 (relative stereo)
8,208 to 210 °C,O=C(O)C1C2CCC(O2)C1C(=O)NCCN1C(=O)NC(c2ccccc2)(c2ccccc2)C1=O (configuration not stated)
9,199 to 200 °C,CCCCC[C@@H](CNC(=O)Nc1c(N2CCCC2)ncnc1N1CCCC1)c1cccc2c1OCO2
10,220 °C,CC1CCC(C(=O)N(C)C)=C2NC=C(C(N)=O)C(=O)N21 (configuration not stated)
11,282 to 284 °C,O=C1CCC(N2Cc3c(CNC(=O)c4ccncc4)cccc3C2=O)C(=O)N1 (configuration not stated)
12,110 °C,CC(C)(CO)[C@@H](O)C#N
13,248 to 250 °C,CCCC12CCC(=O)C=C1c1c(cc(CC(=O)O)c(Cl)c1Cl)O2 (configuration not stated)
14,95 to 98 °C,COC(=O)CC(C)C(=O)c1ccc2c(c1)OCC(=O)N2 (configuration not stated)
15,164 to 166 °C,CCOC(=O)c1cnc2c(c(C)nn2-c2ccccc2)c1N(Cc1ccccc1)S(=O)(=O)c1ccc(OC)cc1
16,154 to 155 °C,O=C(CCNC(=O)c1ccccc1)NCCSC(=O)c1ccccc1
17,113 to 114 °C,CCN(CC)C(=O)c1cc(C)ccc1-c1ccc(OC)cc1
18,202 to 203 °C,CCCCSc1cc(C(=O)O)cc(S(N)(=O)=O)c1Cl
19,144 to 146 °C,O=S(=O)(Nc1cccc(OCc2ccc3ccccc3n2)c1)C(F)(F)F
20,110 °C,N#Cc1ccn2c1CSC2c1cccnc1 (configuration not stated)
21,150 to 155 °C,NC(=O)n1ccc(-c2ccc(Sc3ccc(F)cc3)cc2)n1
22,91 to 93 °C,CC(C(=O)O)c1ccc2oc(Cc3ccc(F)cc3)nc2c1 (configuration not stated)

row,Compound,melting point
1,CCCCCCC(C)(C)c1cc(OC)c(C2C(=O)[C@]3(C)CC[C@H]2C3(C)C)c(OC)c1 (some centres not stated),64 to 65 °C
2,CCCCn1c(C)c(C)cc(Oc2nc3ccccc3o2)c1=O,106 to 108 °C
